Data taken from EP0185623A1, “Milbemycin derivatives for combating insects and parasites” (CIBA-GEIGY AG, priority 1984, dated 1986).

Legend:
[1] = tested on: Haemonchus contortus und Trychostrongylus colubriformis; test: B-5 test on sheep infected with nematodes, worm egg count in faeces; format: in vivo, Schafe; details: single dose
Description: B-5. Versuch an mit Nematoden (Haemonchus concortus und Trichostrongylus colubriformis) infizierten Schafen
Der Wirkstoff wird als Suspension formuliert mit einer Magensonde oder durch Injektion in den Pansen eines Schafes gegeben, das mit Haemonchus contortus und Trychostrongylus colubriformis künstlich infiziert worden ist. Pro Dosis werden 1 bis 3 Tiere verwendet. Jedes Schaf wird nur einmal mit einer einzigen Dosis behandelt, und zwar wahlweise mit 2 mg oder 1 mg/kg Körpergewicht. Die Evaluierung erfolgt durch Vergleich der Anzahl der vor und nach Behandlung im Kot der Schafe ausgeschiedenen Wurmeier.
Gleichzeitig und gleichartig infizierte aber unbehandelte Schafe dienen als Kontrolle. Schafe, die mit einer der Verbindungen der Formel I bei 1 mg/kg behandelt wurden, zeigten im Vergleich zu unbehandelten, aber infizierten Vergleichsgruppen keinen Nematodenbefall (= komplette Reduktion der Wurmeier im Kot). […] Schafe, die mit 0,1 mg/kg Köpergewicht der Verbindung Nr. 1.1 (A) und der Verbindung Nr. 1.15 (B) behandelt wurden, zeigten im Vergleich zur Kontrolle eine 77%ige (A) und eine 97Xige (B) Wirkung, während 5-0-(2,3,4,6-Tetra-0-acetyl-1-0-glucanopyranosyl)-milbemycin A3 bei dieser Konzentration unwirksam war.

[2] = tested on: L1-Larven von Lucilia sericata; test: B-3 action against L1 larvae in larval culture medium; format: in vivo; details: 100 ppm, after 4 days
Description: B-3. Wirkung gegen L1-Larven von Lucilia sericata
1 ml einer wässrigen Suspension der zu prüfenden Aktivsubstanz wird so mit 3 ml eines speziellen Larvenzuchtmediums bei ca. 50°C vermischt, dass ein Homogenisat von wahlweise 250 ppm oder 125 ppm Wirkstoffgehalt entsteht. In jede Reagenzglas-Probe werden ca. 30 Lucilia-Larven (L1) eingesetzt. Nach 4 Tagen wird die Mortalitätsrate bestimmt. Die Verbindungen der Formel 1 erzielten mit 250 ppm, die Verbindungen Nr. 1.1, 1.3, 1.15, 1.22, 1.27, 1.35, 1.37, 1.38 und 1.43 bereits bei 100 ppm eine Wirkung von 100 %.

[3] = tested on: Boophilus microplus (Biarra-Stamm); test: B-4 acaricidal action, injection into engorged female ticks; format: in vivo; details: dose per tick at which 9 of 10 females lay non-hatching eggs after 30 days
Description: B-4. Akarizide Wirkung gegen Boophilus microplus (Biarra-Stamm
Auf einer PVC-Platte wird waagrecht ein Klebstreifen so befestigt, das darauf 10 mit Blut vollgesogene Zecken-Weibchen von Boophilus microplus (Biarra-Stamm) nebeneinander in einer Reihe mit dem Rücken aufgeklebt werden können. Jeder Zecke wird mit einer Injektionsnadel 1 µl einer Flüssigkeit injiziert, die eine 1:1-Mischung von Polyethylenglykol und Aceton darstellt und in der als bestimmte Wirkstoffmenge […] pro Zecke gelöst ist. Kontrolltiere erhalten eine wirkstofffreie Injektion. Nach der Behandlung werden die Tiere unter Normalbedingungen in einem Insektarium bei ca. 28°C und 80 % relativer Luftfeuchtigkeit gehalten, bis die Eiablage erfolgt und die Larven aus den Eiern der Kontrolltiere geschlüpft sind.
Die Aktivität einer geprüften Substanz wird mit der IR90 bestimmt, d.h. es wird jene Wirkstoffdosis ermittelt, bei der noch nach 30 Tagen 9 von 10 Zeckenweibchen (= 90 %) Eier ablegen, die nicht schlupffähig sind.

Row | Substance | Wirkung im Vergleich zur Kontrolle ([1]; 0,1 mg/kg Körpergewicht) | Wirkung (Reduktion der Wurmeier im Kot) ([1]; 2 mg/kg) | Wirkung (Mortalitätsrate) [2] | IR90 [3]
1 | 5-0-(2,3,4,6-Tetra-0-acetyl-1-0-glucanopyranosyl)-milbemycin A3 [Tetraacetylglucopyranosyl-milbemycin A3] | unwirksam | annähernd wirkungslos |  | 
2 | 5-0-(1-0-Galactopyranosyl)-milbemycin D [1.38] |  |  | 100% | 0,5 µg
